# Values of other authors as cited in patent EP3854384A1, “PHARMACEUTICAL FORMULATION COMPRISING ABIRATERONE ACETATE” (Adamed Pharma S.A., priority 2020, dated 2021).
# Conditions: low water solubility and low intestinal permeability
smiles,measurement,value
"CC(=O)O[C@H]1CC[C@@]2(C)C(=CC[C@@H]3[C@@H]2CC[C@]2(C)C(c4cccnc4)=CC[C@@H]32)C1 [Abiraterone acetate, (3β)-17-(3-pyridinyl)androsta-5,16-dien-3-yl acetate]",Biopharmaceutical Classification System (BCS) class,class IV
